Test [1] is filed under the species Rattus norvegicus. The test can be described thus: Vasorelaxant potency by relaxation of the methoxamine contracted rat aorta. In kind it is functional.
Test [2] deals with Rattus norvegicus. The test can be described thus: The compound was evaluated for the antihypertensive activity at a dose of 45 umol/kg given orally. In kind it is functional.
The species entered for test [3] is Cavia porcellus. The test can be described thus: Percent inhibition of inward calcium current by 100 uM of the compound. The class given is functional. On the set-up: scale not given: the % may be the effect or the level left.
The species named for test [4] is Cavia porcellus. The test is described as follows: Percent inhibition of inward calcium current by 10 uM of the compound. On the set-up: scale not given: the % may be the effect or the level left. In kind it is functional.
Test [5] has as its system Rattus norvegicus. The test can be described thus: Compound was evaluated for the antihypertensive activity at a dose of 45 umol/kg given orally; No significant effect on blood pressure. In kind it is functional, organism-based.
The species entered for test [6] is Cavia porcellus. The test is described as follows: Percent inhibition of inward calcium current by 50 uM of the compound. In kind it is functional. On the set-up: scale not given: the % may be the effect or the level left.
The test system of test [7] is Rattus norvegicus. The test can be described thus: The compound was evaluated for the antihypertensive activity at a dose of 45 umol/kg given orally. In kind it is functional.
The test system of test [8] is Rattus norvegicus. The test is described as follows: Compound was evaluated for the antihypertensive activity at a dose of 45 umol/kg given orally; No significant effect on blood pressure. The class given is functional, organism-based.

The term IC50 denotes the concentration needed to halve the response being measured.

As to `COC(=O)C1=C(C)NC(C)=C(C(=O)OC)C1c1ccccc1[N+](=O)[O-]` [NIFEDIPINE], in test [1], the 50% inhibitory concentration (IC50) stood at 0.004 µM. Further, the Activity in test [2] is 33%.

Regarding `CC1(C)Oc2c(c(=O)n(Cc3ccccc3)c3ccccc23)[C@@H](N2CCCC2=O)[C@@H]1O`, the Activity in test [3] worked out at 55%; in test [4] it was 30%; in test [6], 46%. For the same compound, the IC50 entry in test [5] was “Not Active”; in test [1] it was 0.44 µM.

In turn, `CC1(C)Oc2ccc(C#N)cc2[C@@H](N2CCCC2=O)[C@@H]1O` [CROMAKALIM] returned an Activity in test [7] of 63%.

On to `COc1ccc([C@@H]2Sc3ccccc3N(CCN(C)C)C(=O)[C@@H]2OC(C)=O)cc1` [DILTIAZEM], for which the 50% inhibitory concentration (IC50) result in test [8] is “Not Active”; in test [1] it was 2.38 µM.

Source of the values: ChEMBL document CHEMBL1126367, “The discovery of a novel calcium channel blocker related to the structure of potassium channel opener cromakalim” (Bioorg Med Chem Lett, 1992).
